The values below come from patent US9227977B2, “Phosphoinositide 3-kinase inhibitors” (RESPIVERT LTD., priority 2013, dated 2016).

One experiment addresses PI3K γ (Homo sapiens (Human), UniProt P48736). Put plainly: PI3K γ cell based assay: MCP-1-induced Akt phosphorylation in d-U937 cells. Conditions: inhibition of induced Akt phosphorylation, MCP-1 stimulus; read-out: REC50 values in d-U937 cells, MCP-1 stimulus. Here is the method:
As a means of assessing the activation of PI3K γ in response to stimuli, the phosphorylation status of the protein, Akt, a downstream product of PI3K γ signalling, was determined following stimulation with MCP-1.
(§1) U937 cells were differentiated to macrophage-type cells by incubation with PMA (100 ng/mL) for 48 to 72 hr. Cells were then pre-incubated with either the test compound or vehicle for 2 hr and were then stimulated briefly with MCP-1 (10 nM, 1 min) and the reaction stopped by replacing the media with 4% formaldehyde solution. […] After washing with buffer (PBS containing 0.1% Triton X-100), cells were incubated with an HRP-conjugated secondary antibody (Dako) and the resultant signal was determined colorimetrically (OD: 450 nm with a reference wavelength of 655 nm) using TMB substrate (substrate reagent pack supplied by R&D Systems, Inc.).
This reaction was stopped by addition of 1N H2SO4 solution (100 μL). […] After washing with buffer (PBS containing 0.1% Triton X-100) 1% SDS (100 μL) was added to each well and the plates were shaken lightly for 1 hr prior to measuring the absorbance at 595 nm (Varioskan® Flash, Thermo-Fisher Scientific). The measured OD450-655 readings were corrected for cell number by dividing the OD450-655 by the OD595 readings. The ratio of pAkt signal to total Akt signal was used to quantitate the extent of PI3K γ activation. […]

Another experiment has as its target PI3K δ (Homo sapiens (Human), UniProt O00329). Put plainly: PI3K δ cell based assay: H2O2-induced Akt phosphorylation in d-U937 cells. The conditions noted are these: inhibition of induced Akt phosphorylation, H2O2 stimulus; read-out: REC50 values in d-U937 cells, H2O2 stimulus. Here is the method: As a means of assessing PI3K δ activation in response to stimuli, the phosphorylation status of the protein, Akt, a downstream product of PI3Kδ, signaling was determined.
as §1, with “U937 cells, obtained from a human, leukemic, monocyte lymphoma cell line,” for “U937 cells”, “briefly by exposure to H2O2” for “briefly with MCP-1”, “(10 mM, 5-7” for “(10 nM, 1”
This reaction was stopped by the addition of H2SO4 solution (100 μL). […] After washing with buffer (PBS containing 0.1% Triton X-100) 1% SDS (100 μL) was added to each well and the plates were shaken lightly for 1 hr prior to measuring the absorbance at 595 nm (Varioskan® Flash, Thermo-Fisher Scientific). The measured OD450-655 readings were corrected for cell number by dividing the OD450-655 by the OD595 readings. The ratio of pAkt signal to total Akt signal was used to quantitate the extent of PI3K δ activation. […]

A further experiment has as its target PI3K β (Homo sapiens (Human), UniProt P42338). The experiment can be described thus: PI3K enzyme inhibition assay (HTRF TR-FRET). Type of experiment: biochemical. The source says: The PI3K enzymes catalyse the phosphorylation of phosphatidylinositol 4,5-biphosphate (PIP2) to phosphatidylinositol 3,4,5-triphosphate (PIP3) in the presence of ATP and Mg^2+ ions. The PIP3 product can be detected by displacement of biotin-PIP3 from energy transfer complexes consisting of europium labelled anti-GST monoclonal antibody, a GST-tagged Pleckstrin homology (PH) domain, biotinylated PIP3 and streptavidin-allophycocyanin (APC) by the time-resolved fluorescence resonance energy transfer (TR-FRET) (HTRF®PI3K enzyme assay, Millipore). Excitation, at 330 nm, of europium in the complex results in an energy transfer to the APC and a fluorescent emission at 665 nm although europium itself emits at its characteristic wavelength of 620 nm. The PIP3 product formed by PI3K activity displaces biotin-PIP3 from the complex and results in a loss of energy transfer (decreasing signal).
The compound to be tested was added, at the desired final concentrations, to a mixture of PIP2 substrate and a recombinant PI3K enzyme (either α, β or δ isoforms, ex Millipore, or γ isoform [p110γ+p101 construct], ex United States Biological, Swampscott, Mass.) and the mixture incubated for 2 hr at RT. Following this incubation period, ATP (10 μM) was added to the enzyme/compound/PIP2 substrate mixture and the resulting mixture was incubated for a further 30 min at RT. A stopping solution containing biotinylated PIP3 and the detection mix containing the GST tagged GRP1 pleckstrin homology (PH) domain and fluorophores were then added and the mixture was incubated at RT for 15-18 hr, prior to detection in a fluorescence microplate reader (Synergy 4, BioTek UK, Bedfordshire, UK).
The results were calculated according to the formula: APC signal (emission at 665 nm)/europium signal (emission at 620 nm)×10^4. The percentage inhibition of each reaction was calculated relative to DMSO treated control, and the 50% inhibitory concentration (IC50 value) then calculated from the concentration-response curve.

As a reminder, the IC50 is the concentration needed to halve the response being measured.

Like-named read-outs stand apart in the source and are kept apart here.

PI3K β, sequence (P42338 whole entry, species assumed): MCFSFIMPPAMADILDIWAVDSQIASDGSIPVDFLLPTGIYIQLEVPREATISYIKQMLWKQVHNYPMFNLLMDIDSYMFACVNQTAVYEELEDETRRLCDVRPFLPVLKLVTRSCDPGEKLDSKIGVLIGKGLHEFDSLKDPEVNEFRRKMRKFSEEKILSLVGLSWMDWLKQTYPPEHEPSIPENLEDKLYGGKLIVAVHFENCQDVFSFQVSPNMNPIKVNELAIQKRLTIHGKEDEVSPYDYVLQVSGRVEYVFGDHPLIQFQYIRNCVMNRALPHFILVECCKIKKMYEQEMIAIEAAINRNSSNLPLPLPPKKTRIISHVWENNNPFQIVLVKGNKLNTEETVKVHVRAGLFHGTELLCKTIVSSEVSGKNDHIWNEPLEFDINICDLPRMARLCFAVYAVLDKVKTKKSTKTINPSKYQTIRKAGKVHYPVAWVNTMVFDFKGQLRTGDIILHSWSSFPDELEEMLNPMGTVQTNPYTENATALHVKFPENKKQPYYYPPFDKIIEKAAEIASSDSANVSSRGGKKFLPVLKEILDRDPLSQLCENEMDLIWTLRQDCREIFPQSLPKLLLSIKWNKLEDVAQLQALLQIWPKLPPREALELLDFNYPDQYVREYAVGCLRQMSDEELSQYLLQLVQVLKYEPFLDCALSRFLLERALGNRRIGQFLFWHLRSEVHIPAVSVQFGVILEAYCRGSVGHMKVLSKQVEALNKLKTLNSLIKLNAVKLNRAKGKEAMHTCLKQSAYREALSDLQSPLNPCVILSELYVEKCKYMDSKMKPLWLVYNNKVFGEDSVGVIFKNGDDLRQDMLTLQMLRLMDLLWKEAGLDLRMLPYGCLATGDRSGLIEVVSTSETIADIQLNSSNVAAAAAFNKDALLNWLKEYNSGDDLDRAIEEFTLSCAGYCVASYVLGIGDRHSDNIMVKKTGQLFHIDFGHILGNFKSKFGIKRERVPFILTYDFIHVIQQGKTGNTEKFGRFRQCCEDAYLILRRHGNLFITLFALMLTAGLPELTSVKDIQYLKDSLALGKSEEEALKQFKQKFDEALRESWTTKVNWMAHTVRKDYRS
PI3K β, sequence (P27986 whole entry partner, species assumed): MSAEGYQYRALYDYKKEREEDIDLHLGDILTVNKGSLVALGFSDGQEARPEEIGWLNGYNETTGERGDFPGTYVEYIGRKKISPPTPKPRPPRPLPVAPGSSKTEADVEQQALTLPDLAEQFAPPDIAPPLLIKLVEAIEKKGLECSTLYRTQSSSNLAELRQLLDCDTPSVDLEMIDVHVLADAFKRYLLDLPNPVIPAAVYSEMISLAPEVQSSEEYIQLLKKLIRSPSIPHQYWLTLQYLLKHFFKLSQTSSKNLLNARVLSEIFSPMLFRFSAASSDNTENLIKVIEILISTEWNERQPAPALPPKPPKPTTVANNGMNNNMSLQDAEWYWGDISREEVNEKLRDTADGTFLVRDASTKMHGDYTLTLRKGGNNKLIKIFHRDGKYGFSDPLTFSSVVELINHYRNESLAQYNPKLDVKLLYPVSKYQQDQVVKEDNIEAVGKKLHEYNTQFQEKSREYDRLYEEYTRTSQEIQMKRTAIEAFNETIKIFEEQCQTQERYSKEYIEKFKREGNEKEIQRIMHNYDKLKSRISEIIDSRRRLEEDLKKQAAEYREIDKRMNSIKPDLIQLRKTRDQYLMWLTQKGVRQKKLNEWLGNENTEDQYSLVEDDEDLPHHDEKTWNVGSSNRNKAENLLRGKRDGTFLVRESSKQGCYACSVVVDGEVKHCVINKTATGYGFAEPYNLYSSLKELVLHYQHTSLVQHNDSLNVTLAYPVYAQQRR
PI3K γ, sequence (P48736 whole entry): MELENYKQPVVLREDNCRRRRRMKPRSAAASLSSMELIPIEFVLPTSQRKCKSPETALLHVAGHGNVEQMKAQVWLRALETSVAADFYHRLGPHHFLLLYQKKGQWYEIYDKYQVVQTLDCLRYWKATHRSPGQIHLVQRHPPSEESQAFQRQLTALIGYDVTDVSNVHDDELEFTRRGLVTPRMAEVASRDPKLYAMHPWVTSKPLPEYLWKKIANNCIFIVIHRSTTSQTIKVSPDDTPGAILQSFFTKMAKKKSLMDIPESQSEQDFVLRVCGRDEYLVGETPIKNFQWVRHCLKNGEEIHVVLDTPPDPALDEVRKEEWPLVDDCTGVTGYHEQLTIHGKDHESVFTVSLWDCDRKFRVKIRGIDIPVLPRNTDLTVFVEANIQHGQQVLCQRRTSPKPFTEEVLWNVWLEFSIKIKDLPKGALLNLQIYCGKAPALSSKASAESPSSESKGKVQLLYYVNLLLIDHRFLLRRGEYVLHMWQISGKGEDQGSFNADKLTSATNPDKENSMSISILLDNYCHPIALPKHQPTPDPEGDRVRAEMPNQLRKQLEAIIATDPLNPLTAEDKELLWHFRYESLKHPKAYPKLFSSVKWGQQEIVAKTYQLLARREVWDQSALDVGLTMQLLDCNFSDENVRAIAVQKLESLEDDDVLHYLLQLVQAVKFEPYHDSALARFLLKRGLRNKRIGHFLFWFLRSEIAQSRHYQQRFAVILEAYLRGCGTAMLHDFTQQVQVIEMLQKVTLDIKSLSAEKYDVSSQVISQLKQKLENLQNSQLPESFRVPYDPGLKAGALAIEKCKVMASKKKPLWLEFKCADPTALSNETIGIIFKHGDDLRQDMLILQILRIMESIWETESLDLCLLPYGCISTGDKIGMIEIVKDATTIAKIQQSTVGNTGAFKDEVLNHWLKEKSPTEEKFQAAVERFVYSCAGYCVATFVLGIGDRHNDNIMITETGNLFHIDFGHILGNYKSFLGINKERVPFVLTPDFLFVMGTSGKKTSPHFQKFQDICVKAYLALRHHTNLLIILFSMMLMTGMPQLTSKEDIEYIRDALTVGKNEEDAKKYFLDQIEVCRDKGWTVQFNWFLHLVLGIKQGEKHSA
PI3K δ, sequence (O00329 whole entry): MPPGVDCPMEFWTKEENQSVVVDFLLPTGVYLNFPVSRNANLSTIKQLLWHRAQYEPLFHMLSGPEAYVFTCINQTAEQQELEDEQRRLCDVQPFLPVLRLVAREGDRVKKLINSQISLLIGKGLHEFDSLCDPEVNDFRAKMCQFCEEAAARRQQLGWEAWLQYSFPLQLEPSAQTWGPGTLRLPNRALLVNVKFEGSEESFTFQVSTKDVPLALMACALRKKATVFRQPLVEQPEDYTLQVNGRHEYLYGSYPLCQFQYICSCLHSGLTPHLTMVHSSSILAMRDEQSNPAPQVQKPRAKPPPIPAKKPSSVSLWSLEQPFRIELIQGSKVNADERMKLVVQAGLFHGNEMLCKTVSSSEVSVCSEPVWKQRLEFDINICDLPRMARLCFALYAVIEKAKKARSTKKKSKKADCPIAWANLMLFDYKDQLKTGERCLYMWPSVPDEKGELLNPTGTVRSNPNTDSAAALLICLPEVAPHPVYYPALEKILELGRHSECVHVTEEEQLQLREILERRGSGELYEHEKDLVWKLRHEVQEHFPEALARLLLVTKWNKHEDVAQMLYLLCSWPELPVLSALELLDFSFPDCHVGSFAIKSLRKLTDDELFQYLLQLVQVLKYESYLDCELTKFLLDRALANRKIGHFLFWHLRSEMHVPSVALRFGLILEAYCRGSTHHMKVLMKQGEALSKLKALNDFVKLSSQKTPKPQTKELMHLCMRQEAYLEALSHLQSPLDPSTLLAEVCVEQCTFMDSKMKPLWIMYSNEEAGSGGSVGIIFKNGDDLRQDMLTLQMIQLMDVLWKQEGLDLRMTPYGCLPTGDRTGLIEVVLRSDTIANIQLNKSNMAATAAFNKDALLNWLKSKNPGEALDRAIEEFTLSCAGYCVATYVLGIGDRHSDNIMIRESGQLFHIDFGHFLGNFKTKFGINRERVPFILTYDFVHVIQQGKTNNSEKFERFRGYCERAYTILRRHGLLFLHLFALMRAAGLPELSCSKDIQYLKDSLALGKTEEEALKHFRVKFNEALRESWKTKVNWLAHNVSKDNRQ
PI3K δ, sequence (P27986 whole entry partner): as the sequence (P27986 whole entry partner, species assumed) above

For the molecule `COCCOCCOCC#Cc1cccc2nc(Cn3nc(-c4cc(O)cc(F)c4)c4c(N)ncnc43)n(Cc3ccccc3C(F)(F)F)c(=O)c12` [Compound (I), 2-((4-Amino-3-(3-fluoro-5-hydroxyphenyl)-1H-pyrazolo[3,4-d]pyrimidin-1-yl)methyl)-5-(3-(2-(2-methoxyethoxy)ethoxy)prop-1-yn-1-yl)-3-(2-(trifluoromethyl)benzyl)quinazolin-4(3H)-one], the EC50 on PI3K γ came out at 0.0165 µM; on PI3K δ, 0.0074 µM. Further, at PI3K β, the “inhibitory activity versus PI3K β in enzyme assays (in words)” value is on record as “low inhibitory activity”. For the same molecule, the IC50 at PI3K β (read-out: IC50 Values for PI3K inhibition at isozyme indicated, PI3K β) was 4.89 µM; at PI3K β (read-out: PI3 Kinase Inhibition IC50 value at state isozyme, β), 4.89 µM.
